Several values for one entry are separate records, joined by “and”; a condition that tells them apart may be missing. Identical values can stand only once.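 1) Cells in 96-well plates. 2) Compound, 48 h, 5 concentrations. 3) Linear interpolation between surrounding doses. 4) Unreached endpoint = highest concentration. The concentration for 50% growth inhibition is given as GI50. The concentration for full growth arrest is given as TGI.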
Legend:
Test in all cases: growth of human tumour cells (NCI), 48 h
BT-549 breast = system: BT-549 breast
HCC-2998 colon = system: HCC-2998 colon
HCT-116 colon = system: HCT-116 colon
HCT-15 colon = system: HCT-15 colon
SK-MEL-5 melanoma = system: SK-MEL-5 melanoma
SR leukemia = system: SR leukemia
UACC-62 melanoma = system: UACC-62 melanoma
UO-31 renal = system: UO-31 renal
CCRF-CEM leukemia = system: CCRF-CEM leukemia
A498 renal = system: A498 renal

Row | Structure (SMILES) | GI50 (BT-549 breast) | TGI (BT-549 breast) | GI50 (HCC-2998 colon) | TGI (HCC-2998 colon) | GI50 (HCT-116 colon) | TGI (HCT-116 colon) | GI50 (HCT-15 colon) | TGI (HCT-15 colon) | GI50 (SK-MEL-5 melanoma) | TGI (SK-MEL-5 melanoma) | GI50 (SR leukemia) | TGI (SR leukemia) | GI50 (UACC-62 melanoma) | TGI (UACC-62 melanoma) | GI50 (UO-31 renal) | TGI (UO-31 renal) | TGI (CCRF-CEM leukemia) | GI50 (A498 renal) | TGI (A498 renal) | GI50 (CCRF-CEM leukemia)
1 | CCC(=O)Nc1ccc2c(c1)CN1C(=O)c3ccccc3C1=N2 | > 100 µM | > 100 µM | > 100 µM | > 100 µM | > 100 µM | > 100 µM | > 100 µM | > 100 µM | > 100 µM | > 100 µM | > 100 µM | > 100 µM | > 100 µM | > 100 µM | > 100 µM | > 100 µM |  |  |  | 
2 | C/C=C/C/C=C/CCC(=O)C1OC1C(N)=O (stereo unspecified) |  | 24.6 µM |  | 31.1 µM |  | 28.2 µM |  | 25.9 µM |  | 28.3 µM |  | 50.5 µM |  | 29.3 µM |  | 29.5 µM | 98.3 µM |  |  | 
3 | O=C1CN2CCC1C/C2=C\c1ccnc2c(Cl)cccc12 (stereo unspecified) | > 100 µM | > 100 µM | > 100 µM | > 100 µM | 45 µM | > 100 µM | 85.7 µM | > 100 µM | 31 µM | > 100 µM | 36.5 µM | > 100 µM | > 100 µM | > 100 µM | 17.7 µM | > 100 µM | > 100 µM | 69.8 µM | > 100 µM | 36.5 µM
4 | Cc1cc(Nc2ncc(Cl)c(Nc3ccccc3S(=O)(=O)C(C)C)n2)c(OC(C)C)cc1C1CCNCC1 | 4.47 µM |  | 0.991 µM | 2.21 µM | 1.24 µM | 2.62 µM | 1.21 µM | 2.59 µM | 1.4 µM | 2.73 µM | 0.0444 µM | 1.58 µM | 1.49 µM and 1.17 µM | 2.84 µM and 2.43 µM | 1.29 µM and 1.14 µM | 2.63 µM and 2.36 µM | 4.18 µM | 1.88 µM | 6.83 µM | 1.87 µM
5 | O=C1NC(=O)[C@H]2C3C=CC([C@@H]12)[C@@H]1C(=O)NC(=O)[C@H]31 |  | > 100 µM |  | > 100 µM |  | > 100 µM |  | > 100 µM |  | > 100 µM |  | > 100 µM |  | > 100 µM |  | > 100 µM | > 100 µM |  |  | 
6 | N#C/C(=C\c1ccc(Cl)cc1)n1nnc2cc(F)c(F)cc21 | 1.74 µM | 3.43 µM | 1.74 µM | 3.29 µM | 1.77 µM | 3.45 µM | 1.42 µM | 3.55 µM | 1.62 µM | 3.04 µM | 1.33 µM | > 100 µM | 1.8 µM | 3.96 µM | 1.55 µM | 2.88 µM | > 100 µM | 1.28 µM | 2.66 µM | 2.01 µM
7 | CN1CCN(Cc2ccc(NC(=O)c3[nH]ncc3Nc3ccnc4ccsc34)cc2)CC1 | 4.3 µM | 15.9 µM | 2.75 µM | 10.1 µM | 1.51 µM | 11.7 µM | 3.25 µM | 16.1 µM | 2.48 µM | 11.5 µM | 1.92 µM | 7 µM | 11.2 µM | 30.2 µM | 1.78 µM | 10.1 µM | 9.26 µM | 1.64 µM | 4.87 µM | 2.45 µM
8 | C=C1C(=O)O[C@H]2[C@H]1CC/C(COC(=O)NCCc1c[nH]c3ccccc13)=C\CC[C@@]1(C)O[C@@H]21 | 1.27 µM | 2.82 µM | 1.67 µM | 3.18 µM | 1.01 µM | 2.39 µM | 1.23 µM | 2.81 µM | 2.44 µM | 5.95 µM | 1.07 µM | 7.05 µM | 1.47 µM | 3.2 µM | 1.43 µM | 2.73 µM | 3.57 µM | 8.19 µM | 21.2 µM | 0.362 µM
9 | CCN(CC)CCCN1C(=O)c2c(c(C)c3c(oc4cc(O)ccc43)c2C)C1=O | 14.2 µM | 29.6 µM | 1.78 µM | 3.27 µM | 1.62 µM | 3.11 µM | 1.77 µM | 3.39 µM | 1.73 µM | 3.14 µM | 1.58 µM | 3.99 µM | 1.92 µM | 3.44 µM | 1.66 µM | 3.09 µM | 1.76 µM | 5.06 µM | 16.9 µM | 0.359 µM
10 | Cn1c(Cc2ccccc2)nc2cc3ccccc3cc21 | 21.2 µM | 45.3 µM | 22.8 µM | 49.9 µM | 21 µM | 42.2 µM | 26.8 µM | > 100 µM | 14.8 µM | 29.1 µM | 18.1 µM | 48.1 µM | 19.6 µM | 43.5 µM | 25.7 µM | > 100 µM | 37.6 µM |  |  | 15 µM
11 | CCN(CC)CCCC(C)N/C(c1cccc(OC)c1)=c1\c(=O)[nH]n(-c2c3ccccc3nc3ccccc23)c(=O)\c1=C(/NC(C)CCCN(CC)CC)c1cccc(OC)c1 (stereo unspecified) | 2.15 µM | 4.85 µM | 1.44 µM | 2.92 µM | 0.491 µM | 3.25 µM | 1.02 µM | 6.91 µM | 1.7 µM | 3.13 µM | 1.28 µM | 5.61 µM | 1.69 µM | 3.3 µM | 1.31 µM | 3.61 µM | 3.93 µM | 1.52 µM | 2.93 µM | 0.482 µM
12 | COc1ccc(C(=O)c2ccc(OC)cc2OC)cc1 | 4.06 µM | > 100 µM | 6.54 µM | 41.3 µM | 3.24 µM | 34.7 µM | 3.66 µM | > 100 µM | 2.06 µM | 5.32 µM | 0.891 µM | > 100 µM | 5.67 µM | > 100 µM | 2.7 µM | 39.6 µM | > 100 µM | 5.87 µM | > 100 µM | 3.23 µM
